From US7888355B2, “Compositions and methods for inhibiting growth and metastasis of melanoma” (Burnham Institute for Medical Research, priority 2007, dated 2011)
Read-outs that look alike come from different tables or passages of the source.

Key:
[1] = tested on: human diploid fibroblasts (IMR90); assay: Toxicity on human diploid fibroblasts; assay type: cell-based
Method: Characterization of CSL and AIGA effects on mouse melanoma cells. The structures of AIGA and CSL are depicted in FIGS. 1a and 1b. AIGA was tested for cytotoxicity at concentrations ranging between 0.1 and 2 μM, whereas CSL was used at a concentration of 0.01 to 0.3 μM. SW1 cells or normal melanocytes were seeded on 96 well plates and 24 h late, cells were treated with the indicated concentrations of ATF2 50-100 peptide, AIGA, or CSL for 20 h. ATF2 50-100 peptide (cloned in mammalian expression vector in frame with penetratin was transfected with the aid of lipofectamine) was used as a positive control. ATP levels were used as an indicator of cell viability and were measured using the ATPLITE ATP detection assay kit. The number of surviving cells upon AIGA treatment was normalized to the number of surviving cells under the control treatment, and the normalized number was designated as the “% Viability.” Results shown in FIGS. 1c-1f represent 3 experiments. Treatment of SW1 melanoma cells with 1 μM of AIGA reduced the viability of melanoma cells to 10%, (FIG. 1c). Treatment of the SW1 cells with 0.05 μM of CSL reduced the viability of melanoma cells to 50%, and 0.1 μM reduced it to 10% (FIG. 1d). […] Normal melanocytes and fibroblasts were used as a control.

[2] = tested on: normal mouse melanocytes; assay: Normal melanocyte viability, ATPLITE; assay type: cell-based; conditions: 0.1 μM, 20 h
Method: Cell lines. Mouse melanoma (SW1) and human melanoma (LU1205) cells were maintained in DMEM supplemented with 10% FBS, L-glutamine and antibiotics. The human melanoma cell lines MEWO and WM115 were maintained in RPMI supplemented with 10% FBS and antibiotics. Primary mouse melanocytes were cultured in F-12 media supplemented with 10% FBS, antibiotics, IBMX (isobuthyl-methylxantine), bovine pituitary extract, and TPA.
Mitochondrial activity and apoptosis. Cells were exposed to the chemicals for 12-48 hours as indicated in Results. To measure changes in mitochondrial activity reflective of general cell viability, the ATPLITE ATP detection assay was used according to the manufacturer's recommendations (Perkin Elmer). Apoptosis analysis was performed by flow cytometry of PI-stained cells. The percentage of cells to the left of the diploid G0/1 peak, characteristic of hypodiploid cells that have partially lost DNA, was calculated as percentage of apoptotic cells (Bhoumik et al., PNAS 101:4222-7, 2004). Analysis of changes in Caspase 8 expression pattern was performed using immunoblot analysis.
Characterization of CSL and AIGA effects on mouse melanoma cells. The structures of AIGA and CSL are depicted in FIGS. 1a and 1b. […] ATP levels were used as an indicator of cell viability and were measured using the ATPLITE ATP detection assay kit. […]

[3] = tested on: AP1/c-Jun transcriptional activity; assay: TRE-luciferase reporter assay in SW1 cells; assay type: cell-based, mouse; conditions: 8 h; for AP1/c-Jun transcriptional activity (TRE-Luc): compounds compared with ATF2 peptide; for dose from which c-Jun transcriptional activity is induced: TRE-Luc
Method: Constructs and inhibitors. An ATF2 peptide (aa 51-100) was cloned into HA-tagged pcDNA3 vector as previously described (Bhoumik et al., Cancer Res 64:8222-30, 2004). 5×Jun2tk-Luc (marker for ATF2 transcriptional activities), 5×TRE-tk-Luc (marker for AP1/c-Jun transcriptional activities) and 2×NF-B-Luc were previously described (Bhoumik et al., J Clin Invest 110:643-50, 2002). Pharmacological inhibitor of JNK (SP600125) was purchased (EMD biosciences) and added (5 μM) to cultured cells as indicated in Results.
Transcriptional analysis. Transient transfection of different reporter constructs into melanoma cells was performed using LIPOFECTAMINE PLUS transfection reagent (Invitrogen). Luciferase activity was determined as previously described (Bhoumik et al., PNAS 101:4222-7, 2004).
The effects of the two compounds on c-Jun transcriptional activity in mouse melanoma SW1 cells was assessed. SW1 cells were transfected with the TRE-luciferase plasmid and 24 h later, cells were treated with the indicated concentrations of AIGA or CSL for 8 h before proteins were prepared and level of luciferase activity was measured. ATF250-100 peptide was used as a positive control. Data shown represent results from 3 experiments. […] AIGA induced c-Jun transcriptional activity at doses starting from 0.1 μM (FIG. 2a).

[4] = tested on: JNK phosphorylation on residues 183/185; assay: Western blot for JNK phosphorylation in SW1 cells; assay type: cell-based, mouse; conditions: 0.5, 1.0, 2.0 μM
Method: Immunoblot analysis. Proteins prepared from cells at the indicated time points using RIPA buffer and 75 μg were separated on SDS-PAGE followed by immunoblot analysis using the antibodies indicated. Antibodies used were as follows: anti-JNK (Santa Cruz), phospho-JNK (Promega Corp.; Madison, Wis.), phospho c-Jun (Cell Signaling Technology, Inc.; Danvers, Mass.), c-Jun (Santa Cruz Biotechnology, Inc.; Santa Cruz, Calif.) and Caspase 8 (BD Biosciences; San Jose, Calif.).
Thus, the two compounds were evaluated to determine if they require JNK activity for their effects on melanoma cells. To this end, the ability of AIGA or CSL to affect the viability of melanoma cells in the presence of a JNK inhibitor was tested. SW1 cells, with or without a 30-minute pretreatment with the JNK inhibitor SP600125 (10 μM), were contacted with AIGA or CSL at the indicated concentrations for 20 h. ATP levels were used to measure the cell viability using the ATPLITE kit. […] To assess whether these compounds affect JNK activity, changes in JNK phosphorylation on residues 183/185, which are required for its kinase activity, were monitored. […] Total level of JNK was analyzed in parallel. […]

| Compound | toxic effect on human diploid fibroblasts (IMR90) [1] | toxicity on normal mouse melanocytes [2] | AP1/c-Jun transcriptional activity (TRE-Luc) [3] | dose from which c-Jun transcriptional activity is induced [3] | phosphorylation of JNK on residues 183/185 [4] | toxic effect on human diploid fibroblasts (IMR90) ([1]; data not shown) |
| --- | --- | --- | --- | --- | --- | --- |
| CC(=O)Oc1c2c(c(CC=C(C)C)c3c1C(=O)C1=C[C@@H]4CC5C(C)(C)OC(C/C=C(\C)C(=O)O)(C4=O)[C@@]15O3)OC(C)(CCC=C(C)C)C=C2 (stereo partly shown) [AIGA, Acetyl isogambogic acid] | Neither CSL nor AIGA elicited toxic effect | 40% | stronger activation of c-Jun transcription | ≥ 0.1 µM | induced phosphorylation of JNK |  |
| CC1=C(O)C(=O)C=C2C1=CC=C1[C@@]2(C)CC[C@@]2(C)[C@@H]3C[C@](C)(C(=O)O)CC[C@]3(C)CC[C@]12C [Celastrol] |  | 10% | stronger activation of c-Jun transcription | ≥ 0.01 µM | induced phosphorylation of JNK | Neither CSL nor AIGA elicited toxic effect |
